# Measured values: ChEMBL document CHEMBL3046196, “Dimeric 2-(2-chlorophenyl)-quinazolin-4-ones as potential antimicrobial agents” (2012)
# Experiments:
# Format in all cases: functional
# Escherichia coli = experiment: Antimicrobial activity against Escherichia coli MTCC 443 after 24 and 48 hr by serial broth dilution method
# Aspergillus niger = experiment: Antimicrobial activity against Aspergillus niger MTCC 282
# Streptococcus pyogenes = experiment: Antimicrobial activity against Streptococcus pyogenes MTCC 442 after 24 and 48 hr by serial broth dilution method
# Pseudomonas aeruginosa = experiment: Antimicrobial activity against Pseudomonas aeruginosa MTCC 1688 after 24 and 48 hr by serial broth dilution method
# Candida albicans = experiment: Antimicrobial activity against Candida albicans MTCC 227
# Staphylococcus aureus = experiment: Antimicrobial activity against Staphylococcus aureus MTCC 96 after 24 and 48 hr by serial broth dilution method
# Aspergillus clavatus = experiment: Antimicrobial activity against Aspergillus clavatus MTCC 1323
SMILES,MIC99 (Escherichia coli) [µg/mL],MIC99 (Aspergillus niger) [µg/mL],MIC99 (Streptococcus pyogenes) [µg/mL],MIC99 (Pseudomonas aeruginosa) [µg/mL],MIC99 (Candida albicans) [µg/mL],MIC99 (Staphylococcus aureus) [µg/mL],MIC99 (Aspergillus clavatus) [µg/mL]
COc1ccc(-n2c(-c3ccccc3Cl)nc3ccc(CCn4c(-c5ccccc5Cl)nc5ccccc5c4=O)cc3c2=O)c([N+](=O)[O-])c1,100,500,100,500,100,100,500
O=c1c2ccccc2nc(-c2ccccc2Cl)n1CCc1ccc2nc(-c3ccccc3Cl)n(-c3cccc([N+](=O)[O-])c3)c(=O)c2c1,50,1000,50,100,1000,50,100
Cc1ccc(C)c(-n2c(-c3ccccc3Cl)nc3ccc(CCn4c(-c5ccccc5Cl)nc5ccccc5c4=O)cc3c2=O)c1,100,500,25,200,200,100,500
CC1(C)S[C@@H]2[C@H](NC(=O)[C@H](N)c3ccccc3)C(=O)N2[C@H]1C(=O)O [AMPICILLIN],100,,100,100,,250,
Cc1ccc(-n2c(-c3ccccc3Cl)nc3ccc(CCn4c(-c5ccccc5Cl)nc5ccccc5c4=O)cc3c2=O)c(C)c1,50,500,50,100,100,50,500
COC1=CC(=O)C[C@@H](C)[C@]12Oc1c(Cl)c(OC)cc(OC)c1C2=O [GRISEOFULVIN],,100,,,500,,100
O=c1c2ccccc2nc(-c2ccccc2Cl)n1CCc1ccc2nc(-c3ccccc3Cl)n(-c3ccccc3Cl)c(=O)c2c1,500,100,50,500,500,200,100
O=c1c2ccccc2nc(-c2ccccc2Cl)n1CCc1ccc2nc(-c3ccccc3Cl)n(-c3ccccc3[N+](=O)[O-])c(=O)c2c1,100,100,12.5,200,100,200,1000
O=c1c2ccccc2nc(-c2ccccc2Cl)n1CCc1ccc2nc(-c3ccccc3Cl)n(-c3ccc(Br)cc3)c(=O)c2c1,200,500,500,200,1000,500,1000

# Other lines, results leading:
MIC99 (Escherichia coli) [µg/mL],MIC99 (Aspergillus niger) [µg/mL],MIC99 (Streptococcus pyogenes) [µg/mL],MIC99 (Pseudomonas aeruginosa) [µg/mL],MIC99 (Candida albicans) [µg/mL],MIC99 (Staphylococcus aureus) [µg/mL],MIC99 (Aspergillus clavatus) [µg/mL],SMILES
200,500,50,100,100,50,100,O=c1c2ccccc2nc(-c2ccccc2Cl)n1CCc1ccc2nc(-c3ccccc3Cl)n(-c3ccc(Cl)c(Cl)c3)c(=O)c2c1
500,100,50,500,500,100,100,O=c1c2ccccc2nc(-c2ccccc2Cl)n1CCc1ccc2nc(-c3ccccc3Cl)n(-c3c(Cl)cc([N+](=O)[O-])cc3Cl)c(=O)c2c1
50,500,100,100,500,500,500,Cc1cccc(-n2c(-c3ccccc3Cl)nc3ccc(CCn4c(-c5ccccc5Cl)nc5ccccc5c4=O)cc3c2=O)c1C
200,1000,25,500,500,100,100,Cc1ccc(-n2c(-c3ccccc3Cl)nc3ccc(CCn4c(-c5ccccc5Cl)nc5ccccc5c4=O)cc3c2=O)c([N+](=O)[O-])c1
100,500,100,500,500,200,500,O=c1c2ccccc2nc(-c2ccccc2Cl)n1CCc1ccc2nc(-c3ccccc3Cl)n(-c3ccc([N+](=O)[O-])cc3)c(=O)c2c1
